Laboratory results: patent US10159254B2, “Weed control methods” (Syngenta Participations AG, priority 2013, dated 2018)
Where “and” joins values, the source holds several entries; their conditions need not be identical. Equal entries are not always repeated.

Legend:
Assay type in all cases: in vivo, Nicotiana tabacum cv Samsun (tobacco)
[1] = system: untransformed clonal tobacco plants (WT); test: Wild type tobacco herbicide damage, mesotrione with or without Sequestrene 138
Protocol: (§1) Effect of Iron Chelates in Mitigating Foliar Bleaching Injury from HPPD Inhibiting Herbicides Across Various Transgenic HPPD Tolerant Tobacco Events Over-expressing HPPD Genes from Different Origins
(§2) This experiment is carried out to determine whether iron chelates can mitigate the bleaching injury from HPPD inhibiting herbicides across various transgenic HPPD tolerant tobacco events over-expressing HPPD genes from different origins. These experiments are conducted using three distinct HPPD-overexpressing Nicotiana tabacum cv Samsun (tobacco) lines, one over-expressing wheat HPPD, one overexpressing an Avena HPPD and one over-expressing a HPPD from a bacterial source, Pseudomonas florescens. For each transgenic line, five identical clonal plants were sprayed with each herbicide treatment. Two untransformed clonal tobacco plants are also sprayed ([…]) with each herbicide treatment. Assessments are carried out 3, 7 and 14 days after herbicide application.
(§3) All scores represent average % herbicide damage. […] An equivalent safening effect is not observed when the same chemical treatments are applied to wild type plants.

[2] = system: tobacco line overexpressing Avena HPPD; test: Transgenic tobacco herbicide damage, mesotrione with or without Sequestrene 138
Protocol: as §1, §2, §3

[3] = system: tobacco line over-expressing HPPD from Pseudomonas florescens; test: as above
Protocol: as §1, §2, §3

[4] = system: tobacco line over-expressing wheat HPPD; test: as above
Protocol: as §1, §2, §3

[5] = Trt 14: mesotrione 500 gai/ha alone, 3DAA
[6] = Trt 14: mesotrione 500 gai/ha alone, 7DAA
[7] = Trt 14: mesotrione 500 gai/ha alone, 14DAA
[8] = Trt 15: mesotrione 600 gai/ha alone, 7DAA
[9] = Trt 15: mesotrione 600 gai/ha alone, 14DAA
[10] = Trt 16: mesotrione 400 gai/ha + Sequestrene 138 1000 g/ha, 3DAA
[11] = Trt 16: mesotrione 400 gai/ha + Sequestrene 138 1000 g/ha, 7DAA
[12] = Trt 16: mesotrione 400 gai/ha + Sequestrene 138 1000 g/ha, 14DAA

## CS(=O)(=O)c1ccc(C(=O)C2C(=O)CCCC2=O)c([N+](=O)[O-])c1 [Mesotrione, mesotrione]
[1]; [5]
  % herbicide damage: 55% and 60%
[1]; [6]
  % herbicide damage: 80%
[1]; [7]
  % herbicide damage: 85%
[1]; Trt 15: mesotrione 600 gai/ha alone, 3DAA
  % herbicide damage: 55%
[1]; [8]
  % herbicide damage: 80%
[1]; [9]
  % herbicide damage: 85%
[1]; [10]
  % herbicide damage: 60% and 55%
[1]; [11]
  % herbicide damage: 80%
[1]; [12]
  % herbicide damage: 90% and 95%
[1]; Trt 17: mesotrione 500 gai/ha + Sequestrene 138 1000 g/ha, 3DAA
  % herbicide damage: 50% and 60%
[1]; Trt 17: mesotrione 500 gai/ha + Sequestrene 138 1000 g/ha, 7DAA
  % herbicide damage: 80%
[1]; Trt 17: mesotrione 500 gai/ha + Sequestrene 138 1000 g/ha, 14DAA
  % herbicide damage: 90%
[1]; Trt 18: mesotrione 600 gai/ha + Sequestrene 138 1000 g/ha, 3DAA
  % herbicide damage: 55%
[1]; Trt 18: mesotrione 600 gai/ha + Sequestrene 138 1000 g/ha, 7DAA
  % herbicide damage: 80%
[1]; Trt 18: mesotrione 600 gai/ha + Sequestrene 138 1000 g/ha, 14DAA
  % herbicide damage: 90% and 85%
[2]; Trt 13: mesotrione 400 gai/ha alone, 3DAA
  % herbicide damage: 55% and 45% and 50% and 60% and 40%
[2]; Trt 13: mesotrione 400 gai/ha alone, 7DAA
  % herbicide damage: 70% and 65%
[2]; Trt 13: mesotrione 400 gai/ha alone, 14DAA
  % herbicide damage: 65% and 45% and 50%
[2]; [5]
  % herbicide damage: 55% and 60% and 65%
[2]; [6]
  % herbicide damage: 75% and 70%
[2]; [7]
  % herbicide damage: 70% and 65% and 60%
[2]; [8]
  % herbicide damage: 55% and 75% and 78%
[2]; [9]
  % herbicide damage: 40% and 65% and 50% and 70%
[2]; [10]
  % herbicide damage: 0% and 5% and 10%
[2]; [11]
  % herbicide damage: 15% and 10%
[2]; [12]
  % herbicide damage: 15% and 10% and 5%
[3]; Trt 2: mesotrione 100 gai/ha alone, 3DAA
  % herbicide damage: 35% and 25% and 20%
[3]; Trt 2: mesotrione 100 gai/ha alone, 7DAA
  % herbicide damage: 55% and 30% and 35%
[3]; Trt 2: mesotrione 100 gai/ha alone, 14DAA
  % herbicide damage: 40% and 25% and 20% and 30%
[3]; Trt 4: mesotrione 50 gai/ha + Sequestrene 138 1000 g/ha, 7DAA
  % herbicide damage: 0%
[3]; Trt 4: mesotrione 50 gai/ha + Sequestrene 138 1000 g/ha, 14DAA
  % herbicide damage: 0%
[3]; Trt 5: mesotrione 100 gai/ha + Sequestrene 138 1000 g/ha, 3DAA
  % herbicide damage: 10% and 5%
[3]; Trt 5: mesotrione 100 gai/ha + Sequestrene 138 1000 g/ha, 7DAA
  % herbicide damage: 0%
[3]; Trt 6: mesotrione 150 gai/ha + Sequestrene 138 1000 g/ha, 3DAA
  % herbicide damage: 5% and 15% and 10%
[3]; Trt 6: mesotrione 150 gai/ha + Sequestrene 138 1000 g/ha, 14DAA
  % herbicide damage: 5% and 0%
[4]; Trt 7: mesotrione 200 gai/ha alone, 3DAA
  % herbicide damage: 10% and 5%
[4]; Trt 7: mesotrione 200 gai/ha alone, 7DAA
  % herbicide damage: 10% and 0%
[4]; Trt 7: mesotrione 200 gai/ha alone, 14DAA
  % herbicide damage: 10% and 0%
[4]; Trt 8: mesotrione 300 gai/ha alone, 3DAA
  % herbicide damage: 15% and 10%
[4]; Trt 9: mesotrione 400 gai/ha alone, 3DAA
  % herbicide damage: 20% and 15%
[4]; Trt 9: mesotrione 400 gai/ha alone, 7DAA
  % herbicide damage: 20% and 25%
[4]; Trt 10: mesotrione 200 gai/ha + Sequestrene 138 1000 g/ha, 3DAA
  % herbicide damage: 0% and 5%
[4]; Trt 10: mesotrione 200 gai/ha + Sequestrene 138 1000 g/ha, 7DAA
  % herbicide damage: 0%
[4]; Trt 11: mesotrione 300 gai/ha + Sequestrene 138 1000 g/ha, 3DAA
  % herbicide damage: 0% and 5% and 10%
[4]; Trt 11: mesotrione 300 gai/ha + Sequestrene 138 1000 g/ha, 7DAA
  % herbicide damage: 10% and 5% and 0%
[4]; Trt 12: mesotrione 400 gai/ha + Sequestrene 138 1000 g/ha, 3DAA
  % herbicide damage: 10% and 0%
[4]; Trt 12: mesotrione 400 gai/ha + Sequestrene 138 1000 g/ha, 7DAA
  % herbicide damage: 5% and 0%
[4]; Trt 12: mesotrione 400 gai/ha + Sequestrene 138 1000 g/ha, 14DAA
  % herbicide damage: 10% and 5%
